# Assays:
# human NHE-1 = target: T1, human NHE-1 (Homo sapiens, UniProt P19634); test: NHE-1 inhibition, FLIPR assay measuring pHi recovery in transfected cell lines; assay type: cell-based; settings: transfected LAP-1 cell line expressing human NHE-1, BCECF pHi recovery, read-out: NHE1 inhibition IC50
# T1 construct: expressed in transfected cells; host or cells: LAP-1 (parental line without endogenous NHE activity), G418 selection
# Procedure: The inhibitory concentration IC50 for NHE-1 inhibition was determined as follows:
# IC50 for NHE-1 inhibition was determined in an FLIPR assay by measurement of the pHi recovery in transfected cell lines which express human NHE-1.
# The assay was carried out in an FLIPR (fluorometric imaging plate reader) with black-walled 96-well microtiter plates with clear bases.
# The growth medium for the transfected cells (Iscove+10% fetal calf serum) additionally contained G418 as selection antibiotic in order to ensure the presence of the transfected sequences.
# The actual assay started with the removal of the growth medium and addition of 100 μl of loading buffer per well (5 μM BCECF-AM [2′,7′-bis(carboxyethyl)-5-(and -6-)carboxyfluorescein, acetoxymethyl ester] in 20 mM NH4Cl, 115 mM choline chloride, 1 mM MgCl2, 1 mM CaCl2, 5 mM KCl, 20 mM HEPES, 5 mM glucose; pH 7.4 [adjusted with KOH]). The cells were then incubated at 37° C. for 20 minutes. This incubation led to loading of the cells with the fluorescent dye whose fluorescence intensity depends on pHi, and with NH4Cl that made the cells slightly alkaline.
# The nonfluorescent dye precursor BCECF-AM is, as ester, membrane-permeable. The actual dye BCECF is not membrane-permeable but is liberated inside cells by esterases. […]
# [1] = In vivo pharmacokinetics, profiling with the "n in one method" in beagle dog; settings: for Volume of distribution: fasting male beagle dog, single i.v. bolus into jugular vein, about 1 mg/kg, both substances given together
# Procedure: In vivo pharmacokinetics—profiling with the “n in one method”
# The exposure data and the volumes of distribution were determined as characteristic pharmacokinetic data as follows:
# The NHE-1 inhibitor of example 1 of the invention and, as reference substance, the known NHE-1 inhibitor cariporide with formula
# [drawing 23] were dissolved in an aqueous, slightly acidic medium (water, pH 4, adjusted with 1M hydrochloric acid). The concentration of the aqueous formulation prepared in this way was about 1.5 mg of each substance per 1 g of solution. 10 ml of this formulation were administered as a single bolus by catheter into the jugular vein of a fasting male beagle dog (dose about 1 mg of each substance administered per kg of the dog's body weight). Blood samples were taken by means of a second catheter after 5 min, 15 min, 30 min, 1 h, 2 h, 4 h, 8 h and 24 h, and heparinized plasma was prepared by centrifugation at 1000 G in appropriate plasma tubes.
# The plasma samples were worked up and, after an HPLC separation, quantified by MS/MS. The high specificity of this method permitted simultaneous determination of a plurality of substances. The exposures could be calculated using the WinNonlin computer program from the concentration-time plots (see FIG. 1) and compared with the exposure of the known NHE-1 reference substance. Since the various substances were measured in the same animal at the same time, the result was an accurate comparison of the compounds, and a ranking of the volumes of distribution was possible.
# FIG. 1: concentration-time plots in the blood plasma of dogs after administration of in each case approx. 1 mg/kg of the compound of example 1 and of cariporide.
# T1 sequence (P19634 whole entry): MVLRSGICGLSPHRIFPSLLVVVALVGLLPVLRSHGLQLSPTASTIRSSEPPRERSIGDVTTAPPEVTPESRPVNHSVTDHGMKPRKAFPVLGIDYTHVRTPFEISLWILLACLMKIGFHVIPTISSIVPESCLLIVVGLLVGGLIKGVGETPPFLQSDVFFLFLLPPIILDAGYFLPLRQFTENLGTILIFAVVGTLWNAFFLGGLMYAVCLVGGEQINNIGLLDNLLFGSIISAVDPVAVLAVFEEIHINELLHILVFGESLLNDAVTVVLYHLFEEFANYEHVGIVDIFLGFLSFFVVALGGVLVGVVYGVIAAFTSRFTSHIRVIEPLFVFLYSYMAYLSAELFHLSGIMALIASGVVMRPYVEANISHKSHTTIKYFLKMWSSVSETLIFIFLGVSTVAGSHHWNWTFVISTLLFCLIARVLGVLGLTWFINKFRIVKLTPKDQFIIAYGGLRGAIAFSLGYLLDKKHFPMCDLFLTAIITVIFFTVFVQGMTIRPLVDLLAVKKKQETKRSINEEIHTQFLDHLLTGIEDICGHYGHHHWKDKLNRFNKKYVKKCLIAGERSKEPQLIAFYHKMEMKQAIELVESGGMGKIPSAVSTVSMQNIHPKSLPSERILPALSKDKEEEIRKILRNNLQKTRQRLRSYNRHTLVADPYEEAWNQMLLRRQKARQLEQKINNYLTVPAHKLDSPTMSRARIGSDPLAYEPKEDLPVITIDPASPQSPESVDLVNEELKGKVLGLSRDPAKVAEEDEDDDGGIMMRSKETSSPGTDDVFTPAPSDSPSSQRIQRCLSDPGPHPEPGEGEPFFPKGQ
IC50 (human NHE-1) [nM],"Exposure relative to reference substance cariporide (times higher) ([1]; dog plasma, about 1 mg/kg i.v., from concentration-time plots, FIG. 1)",Volume of distribution [1],melting point [°C],"Detectability in plasma after 24 hours ([1]; dog plasma, 24 h after about 1 mg/kg i.v.)",SMILES
49,2-3 times,1.67 l/kg of body weight,254 to 256,,"Cc1cc(S(F)(F)(F)(F)F)c(S(C)(=O)=O)cc1C(=O)N=C(N)N [Example 1, N-(5-Methanesulfonyl-2-methyl-4-pentafluorosulfanylbenzoyl)guanidine]"
,,2.94 l/kg of body weight,,no longer detectable,"CC(C)c1ccc(C(=O)N=C(N)N)cc1S(C)(=O)=O.CS(=O)(=O)O [cariporide, reference compound]"

# — patent publication US7622611B2, “Pentafluorosulfanylbenzoylguanidines, process for their preparation, use as a medicament or diagnostic aid, and medicament comprising same” (Sanofi-Aventis Deutschland GmbH, priority 2003, dated 2009)
